Laboratory results from patent EP4722207A1, “OXOISOINDOLINYL-SUBSTITUTED TETRAHYDROPYRIMIDINEDIONE DERIVATIVE AND USE THEREOF” (Gluetacs Therapeutics (Shanghai) Co., Ltd., priority 2023, dated 2024).

Assays:
Assay type in all cases: cell-based
IKZF1 = biological target: T1, IKZF1 (Homo sapiens, UniProt Q13422+Q96SW2); assay: Western-blot assay, substrate protein degradation in hPBMCs: IKZF1; conditions: for substrate protein remaining % IKZF1: 24 hours of compound treatment, 50 nM and 500 nM; for IKZF1 substrate protein remaining %: compounds at 50 nM and 500 nM, 24 hours
T1 construct: effects of the compounds of the present disclosure on the expression of target proteins in cells; endogenous in cells; host or cells: human PBMCs (hPBMCs)

IKZF2 = biological target: T2, IKZF2 (Homo sapiens, UniProt Q96SW2+Q9UKS7); assay: Western-blot assay, substrate protein degradation in hPBMCs: IKZF2; conditions: for substrate protein remaining % IKZF2: 24 hours of compound treatment, 50 nM and 500 nM; for IKZF2 substrate protein remaining %: compounds at 50 nM and 500 nM, 24 hours
T2 construct: effects of the compounds of the present disclosure on the expression of target proteins in cells; endogenous in cells; host or cells: human PBMCs (hPBMCs)

CK1α = biological target: T3, CK1α (Homo sapiens, UniProt P48729+Q96SW2); assay: Western-blot assay, substrate protein degradation in hPBMCs: CK1α; conditions: for substrate protein remaining % CK1α: 24 hours of compound treatment, 50 nM and 500 nM; for CK1α substrate protein remaining %: compounds at 50 nM and 500 nM, 24 hours
T3 construct: effects of the compounds of the present disclosure on the expression of target proteins in cells; endogenous in cells; host or cells: human PBMCs (hPBMCs)

GSPT1 = biological target: T4, GSPT1 (Homo sapiens, UniProt P15170+Q96SW2); assay: Western-blot assay, substrate protein degradation in hPBMCs: GSPT1; conditions: for substrate protein remaining % GSPT1: 24 hours of compound treatment, 50 nM and 500 nM; for GSPT1 substrate protein remaining %: compounds at 50 nM and 500 nM, 24 hours
T4 construct: effects of the compounds of the present disclosure on the expression of target proteins in cells; endogenous in cells; host or cells: human PBMCs (hPBMCs)

IKZF3 = biological target: T5, IKZF3 (Homo sapiens, UniProt Q96SW2+Q9UKT9); assay: Western-blot assay, substrate protein degradation in hPBMCs: IKZF3; conditions: for substrate protein remaining % IKZF3: 24 hours of compound treatment, 50 nM and 500 nM; for IKZF3 substrate protein remaining %: compounds at 50 nM and 500 nM, 24 hours
T5 construct: effects of the compounds of the present disclosure on the expression of target proteins in cells; endogenous in cells; host or cells: human PBMCs (hPBMCs)

WEE1 = biological target: T6, WEE1 (Homo sapiens, UniProt P30291+Q96SW2); assay: Western-blot assay, substrate protein degradation in hPBMCs: WEE1; conditions: for substrate protein remaining % WEE1: 24 hours of compound treatment, 50 nM and 500 nM; for WEE1 substrate protein remaining %: compounds at 50 nM and 500 nM, 24 hours
T6 construct: effects of the compounds of the present disclosure on the expression of target proteins in cells; endogenous in cells; host or cells: human PBMCs (hPBMCs)
T6 sequence (P30291 whole entry): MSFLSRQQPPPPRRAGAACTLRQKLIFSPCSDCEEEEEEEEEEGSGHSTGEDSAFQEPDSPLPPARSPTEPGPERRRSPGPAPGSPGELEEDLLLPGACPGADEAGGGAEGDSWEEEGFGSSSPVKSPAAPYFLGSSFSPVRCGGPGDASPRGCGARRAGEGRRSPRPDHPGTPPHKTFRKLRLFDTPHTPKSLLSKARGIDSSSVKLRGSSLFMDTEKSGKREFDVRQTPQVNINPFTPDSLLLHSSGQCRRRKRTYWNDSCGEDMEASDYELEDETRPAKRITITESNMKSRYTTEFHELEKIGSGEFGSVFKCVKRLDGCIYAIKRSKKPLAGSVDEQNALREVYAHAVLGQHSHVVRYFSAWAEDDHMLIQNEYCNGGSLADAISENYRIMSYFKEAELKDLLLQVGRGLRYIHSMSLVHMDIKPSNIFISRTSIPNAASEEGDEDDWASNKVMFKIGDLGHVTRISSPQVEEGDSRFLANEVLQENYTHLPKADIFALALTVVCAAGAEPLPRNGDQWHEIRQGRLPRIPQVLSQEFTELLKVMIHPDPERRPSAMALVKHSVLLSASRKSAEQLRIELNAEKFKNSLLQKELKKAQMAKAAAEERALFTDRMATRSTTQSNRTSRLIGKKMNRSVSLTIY
T6 sequence (Q96SW2 whole entry): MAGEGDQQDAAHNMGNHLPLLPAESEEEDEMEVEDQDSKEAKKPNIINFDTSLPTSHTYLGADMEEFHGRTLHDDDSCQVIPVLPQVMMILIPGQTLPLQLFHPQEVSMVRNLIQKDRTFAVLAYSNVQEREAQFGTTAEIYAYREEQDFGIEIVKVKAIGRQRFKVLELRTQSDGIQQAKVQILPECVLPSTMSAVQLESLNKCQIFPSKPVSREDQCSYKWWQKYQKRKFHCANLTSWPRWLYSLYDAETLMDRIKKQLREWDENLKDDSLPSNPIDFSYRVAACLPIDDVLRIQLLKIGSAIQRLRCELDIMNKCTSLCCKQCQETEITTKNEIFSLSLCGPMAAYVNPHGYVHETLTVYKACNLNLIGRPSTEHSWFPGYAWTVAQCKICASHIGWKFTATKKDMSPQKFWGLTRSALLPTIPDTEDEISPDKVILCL
T6 sequence (Q16531 whole entry partner): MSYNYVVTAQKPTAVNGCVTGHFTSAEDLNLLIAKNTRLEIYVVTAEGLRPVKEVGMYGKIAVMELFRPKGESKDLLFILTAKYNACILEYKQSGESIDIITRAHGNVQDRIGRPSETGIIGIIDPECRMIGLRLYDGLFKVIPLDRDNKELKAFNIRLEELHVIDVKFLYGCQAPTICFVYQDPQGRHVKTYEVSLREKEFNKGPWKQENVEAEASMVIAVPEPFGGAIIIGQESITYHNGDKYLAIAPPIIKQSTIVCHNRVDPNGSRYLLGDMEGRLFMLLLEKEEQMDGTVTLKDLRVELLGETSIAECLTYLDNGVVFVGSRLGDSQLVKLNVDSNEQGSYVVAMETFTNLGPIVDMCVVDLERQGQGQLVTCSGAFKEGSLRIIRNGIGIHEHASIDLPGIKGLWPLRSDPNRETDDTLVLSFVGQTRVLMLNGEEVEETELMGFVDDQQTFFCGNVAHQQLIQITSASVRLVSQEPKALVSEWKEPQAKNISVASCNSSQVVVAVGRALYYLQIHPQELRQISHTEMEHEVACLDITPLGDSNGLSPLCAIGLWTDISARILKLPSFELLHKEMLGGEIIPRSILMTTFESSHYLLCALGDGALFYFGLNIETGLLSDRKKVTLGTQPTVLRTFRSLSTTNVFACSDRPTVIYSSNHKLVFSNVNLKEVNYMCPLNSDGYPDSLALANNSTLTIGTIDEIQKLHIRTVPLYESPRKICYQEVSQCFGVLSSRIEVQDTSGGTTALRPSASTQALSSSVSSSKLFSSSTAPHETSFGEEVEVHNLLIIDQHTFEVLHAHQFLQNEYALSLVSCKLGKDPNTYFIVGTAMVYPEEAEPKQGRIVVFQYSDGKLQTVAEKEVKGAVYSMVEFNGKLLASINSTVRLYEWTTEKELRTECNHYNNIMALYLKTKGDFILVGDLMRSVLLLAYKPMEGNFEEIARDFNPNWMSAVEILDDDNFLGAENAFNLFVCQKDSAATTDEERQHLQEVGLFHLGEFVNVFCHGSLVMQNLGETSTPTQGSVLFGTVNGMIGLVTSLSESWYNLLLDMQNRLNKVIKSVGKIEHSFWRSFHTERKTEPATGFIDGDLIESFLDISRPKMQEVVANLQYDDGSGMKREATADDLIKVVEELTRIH

T3 sequence (P48729 whole entry): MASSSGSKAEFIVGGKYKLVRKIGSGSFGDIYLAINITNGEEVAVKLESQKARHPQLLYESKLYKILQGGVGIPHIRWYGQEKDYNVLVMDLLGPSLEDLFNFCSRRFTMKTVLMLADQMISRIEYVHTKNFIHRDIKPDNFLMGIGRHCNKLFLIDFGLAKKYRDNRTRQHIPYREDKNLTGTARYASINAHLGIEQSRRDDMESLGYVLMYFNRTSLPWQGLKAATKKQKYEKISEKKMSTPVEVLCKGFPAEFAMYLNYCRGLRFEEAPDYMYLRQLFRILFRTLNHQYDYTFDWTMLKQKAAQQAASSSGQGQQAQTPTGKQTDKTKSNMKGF
T3 sequence (Q96SW2 whole entry): as the sequence (Q96SW2 whole entry) above
T3 sequence (Q16531 whole entry partner): as the sequence (Q16531 whole entry partner) above
T4 sequence (P15170 whole entry): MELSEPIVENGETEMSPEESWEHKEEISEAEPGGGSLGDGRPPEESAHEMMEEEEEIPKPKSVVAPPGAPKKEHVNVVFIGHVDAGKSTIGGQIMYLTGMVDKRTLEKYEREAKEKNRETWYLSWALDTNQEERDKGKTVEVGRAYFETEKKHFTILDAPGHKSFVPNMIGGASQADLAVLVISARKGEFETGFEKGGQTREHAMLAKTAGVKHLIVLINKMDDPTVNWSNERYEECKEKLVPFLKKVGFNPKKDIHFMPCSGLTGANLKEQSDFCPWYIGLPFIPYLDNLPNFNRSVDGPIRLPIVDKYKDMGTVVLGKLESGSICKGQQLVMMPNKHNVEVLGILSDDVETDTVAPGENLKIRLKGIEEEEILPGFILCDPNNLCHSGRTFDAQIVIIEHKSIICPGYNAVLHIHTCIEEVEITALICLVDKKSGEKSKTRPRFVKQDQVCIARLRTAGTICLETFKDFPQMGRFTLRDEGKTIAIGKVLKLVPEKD
T4 sequence (Q96SW2 whole entry): as the sequence (Q96SW2 whole entry) above
T4 sequence (Q16531 whole entry partner): as the sequence (Q16531 whole entry partner) above
T2 sequence (Q9UKS7 whole entry): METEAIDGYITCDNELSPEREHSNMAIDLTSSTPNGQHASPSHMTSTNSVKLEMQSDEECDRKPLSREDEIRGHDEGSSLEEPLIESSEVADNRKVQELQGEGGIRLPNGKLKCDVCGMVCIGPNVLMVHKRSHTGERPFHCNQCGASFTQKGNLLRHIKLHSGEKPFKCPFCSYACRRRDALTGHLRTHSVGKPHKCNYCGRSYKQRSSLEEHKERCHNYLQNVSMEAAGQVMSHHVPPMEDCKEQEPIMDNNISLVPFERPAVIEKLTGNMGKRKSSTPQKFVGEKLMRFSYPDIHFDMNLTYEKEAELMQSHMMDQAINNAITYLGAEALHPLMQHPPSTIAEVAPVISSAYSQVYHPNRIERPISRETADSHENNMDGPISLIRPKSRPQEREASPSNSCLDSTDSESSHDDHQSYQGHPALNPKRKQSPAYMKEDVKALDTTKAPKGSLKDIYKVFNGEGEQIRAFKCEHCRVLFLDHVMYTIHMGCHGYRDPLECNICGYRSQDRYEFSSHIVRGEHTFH
T2 sequence (Q96SW2 whole entry): as the sequence (Q96SW2 whole entry) above
T2 sequence (Q16531 whole entry partner): as the sequence (Q16531 whole entry partner) above
T1 sequence (Q13422 whole entry): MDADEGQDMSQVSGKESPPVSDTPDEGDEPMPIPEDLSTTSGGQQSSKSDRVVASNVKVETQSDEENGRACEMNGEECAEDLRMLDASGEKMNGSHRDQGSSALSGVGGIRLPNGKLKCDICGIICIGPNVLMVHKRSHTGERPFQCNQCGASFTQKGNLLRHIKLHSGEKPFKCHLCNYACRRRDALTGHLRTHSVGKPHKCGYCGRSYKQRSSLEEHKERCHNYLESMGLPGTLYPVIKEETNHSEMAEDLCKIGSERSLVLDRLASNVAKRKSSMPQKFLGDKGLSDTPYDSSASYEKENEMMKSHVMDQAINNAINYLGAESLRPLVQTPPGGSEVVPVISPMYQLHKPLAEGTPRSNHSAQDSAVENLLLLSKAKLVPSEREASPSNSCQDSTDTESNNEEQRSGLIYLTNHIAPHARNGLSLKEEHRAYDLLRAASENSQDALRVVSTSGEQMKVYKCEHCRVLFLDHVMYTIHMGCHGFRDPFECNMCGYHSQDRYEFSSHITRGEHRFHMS
T1 sequence (Q96SW2 whole entry): as the sequence (Q96SW2 whole entry) above
T1 sequence (Q16531 whole entry partner): as the sequence (Q16531 whole entry partner) above

| SMILES | substrate protein remaining % IKZF1 (IKZF1) | substrate protein remaining % IKZF2 (IKZF2) | substrate protein remaining % CK1α (CK1α) | substrate protein remaining % GSPT1 (GSPT1) | substrate protein remaining % IKZF3 (IKZF3) | substrate protein remaining % WEE1 (WEE1) | IKZF1 substrate protein remaining % (IKZF1) | IKZF2 substrate protein remaining % (IKZF2) | CK1α substrate protein remaining % (CK1α) | GSPT1 substrate protein remaining % (GSPT1) | IKZF3 substrate protein remaining % (IKZF3) | WEE1 substrate protein remaining % (WEE1) |
| --- | --- | --- | --- | --- | --- | --- | --- | --- | --- | --- | --- | --- |
| CC1(C)CC(c2ccc(Cl)cc2)=C(CN2CCN(Cc3ccc4c(c3)CN(N3CCC(=O)NC3=O)C4=O)CC2)CO1 [GT-07332, 1-(5-((4-((4-(4-chlorophenyl)-6,6-dimethyl-5,6-dihydro-2H-pyran-3-yl)methyl)piperazin-1-yl)methyl)-1-oxoisoindolin-2-yl)dihydropyrimidine-2,4(1H,3H)-dione] | A (0% ≤ substrate protein remaining % ≤ 80%) | B (80%< substrate protein remaining %≤ 100%) | B (80%< substrate protein remaining %≤ 100%) | A (0% ≤ substrate protein remaining % ≤ 80%) | A (0% ≤ substrate protein remaining % ≤ 80%) | A (0% ≤ substrate protein remaining % ≤ 80%) | – | – | – | – | – | – |
| O=C1CCN(N2Cc3cc(CN4CCN(C(c5ccccc5)c5cccnc5)CC4)ccc3C2=O)C(=O)N1 (stereo not drawn) [GT-06376, 1-(1-oxo-5-((4-(phenyl(pyridin-3-yl)methyl)piperazin-1-yl)methyl)isoindolin-2-yl)dihydropyrimidine-2,4(1H,3H)-dione] | – | – | – | – | – | – | B ("B" is defined as 80%< substrate protein remaining %≤ 100%) | A ("A" is defined as 0% ≤ substrate protein remaining % ≤ 80%) | B ("B" is defined as 80%< substrate protein remaining %≤ 100%) | A ("A" is defined as 0% ≤ substrate protein remaining % ≤ 80%) | B ("B" is defined as 80%< substrate protein remaining %≤ 100%) | A ("A" is defined as 0% ≤ substrate protein remaining % ≤ 80%) |
| O=C1CCN(N2C(=O)c3ccc(CN4CCC(=C5CCOc6cc(F)ccc65)CC4)cc3C2=O)C(=O)N1 [GT-07685, 2-(2,4-dioxotetrahydropyrimidin-1(2H)-yl)-5-((4-(7-fluorochroman-4-ylidene)piperidin-1-yl)methyl)isoindoline-1,3-dione] | B (80%< substrate protein remaining %≤ 100%) | B (80%< substrate protein remaining %≤ 100%) | B (80%< substrate protein remaining %≤ 100%) | A (0% ≤ substrate protein remaining % ≤ 80%) | B (80%< substrate protein remaining %≤ 100%) | B (80%< substrate protein remaining %≤ 100%) | – | – | – | – | – | – |
| O=C1CCN(N2C(=O)c3ccc(CN4CCN(c5ccc(F)c(F)c5)CC4)cc3C2=O)C(=O)N1 [GT-06797, 5-((4-(3,4-difluorophenyl)piperazin-1-yl)methyl)-2-(2,4-dioxotetrahydropyrimidin-1(2H)-yl)isoindoline-1,3-dione] | – | – | – | – | – | – | B ("B" is defined as 80%< substrate protein remaining %≤ 100%) | B ("B" is defined as 80%< substrate protein remaining %≤ 100%) | B ("B" is defined as 80%< substrate protein remaining %≤ 100%) | B ("B" is defined as 80%< substrate protein remaining %≤ 100%) | B ("B" is defined as 80%< substrate protein remaining %≤ 100%) | A ("A" is defined as 0% ≤ substrate protein remaining % ≤ 80%) |
| O=C1CCN(N2Cc3cc(CN4CCN(c5nccc(Cl)c5F)CC4)ccc3C2=O)C(=O)N1 [GT-05358, 1-(5-((4-(4-chloro-3-fluoropyridin-2-yl)piperazin-1-yl)methyl)-1-oxoisoindolin-2-yl)dihydropyrimidine-2,4(1H,3H)-dione] | – | – | – | – | – | – | B ("B" is defined as 80%< substrate protein remaining %≤ 100%) | B ("B" is defined as 80%< substrate protein remaining %≤ 100%) | B ("B" is defined as 80%< substrate protein remaining %≤ 100%) | A ("A" is defined as 0% ≤ substrate protein remaining % ≤ 80%) | B ("B" is defined as 80%< substrate protein remaining %≤ 100%) | B ("B" is defined as 80%< substrate protein remaining %≤ 100%) |
| CC1(C)CCC(CN2CC3CC2CN3Cc2ccc3c(c2)CN(N2CCC(=O)NC2=O)C3=O)=C(c2ccc(Cl)cc2)C1 (stereo not drawn) [GT-07329, 1-(5-((5-((4'-chloro-5,5-dimethyl-3,4,5,6-tetrahydro-[1,1'-biphenyl]-2-yl)methyl)-2,5-diazabicyclo[2.2.1]heptan-2-yl)methyl)-1-oxoisoindolin-2-yl)dihydropyrimidine-2,4(1H,3H)-dione] | B (80%< substrate protein remaining %≤ 100%) | B (80%< substrate protein remaining %≤ 100%) | B (80%< substrate protein remaining %≤ 100%) | A (0% ≤ substrate protein remaining % ≤ 80%) | B (80%< substrate protein remaining %≤ 100%) | A (0% ≤ substrate protein remaining % ≤ 80%) | – | – | – | – | – | – |
| CC1(C)CCC(CN2CCN(Cc3ccc4c(c3)CN(N3CCC(=O)NC3=O)C4=O)C(C(F)(F)F)C2)=C(c2ccc(Cl)cc2)C1 (stereo not drawn) [GT-07296, 1-(5-((4-((4'-chloro-5,5-dimethyl-3,4,5,6-tetrahydro-[1,1'-biphenyl]-2-yl)methyl)-2-(trifluoromethyl)piperazin-1-yl)methyl)-1-oxoisoindolin-2-yl)dihydropyrimidine-2,4(1H,3H)-dione] | A (0% ≤ substrate protein remaining % ≤ 80%) | B (80%< substrate protein remaining %≤ 100%) | A (0% ≤ substrate protein remaining % ≤ 80%) | A (0% ≤ substrate protein remaining % ≤ 80%) | B (80%< substrate protein remaining %≤ 100%) | A (0% ≤ substrate protein remaining % ≤ 80%) | – | – | – | – | – | – |
| O=C1CCN(N2C(=O)c3ccc(CN4CC=C(c5ccnc(Cl)c5Cl)CC4)cc3C2=O)C(=O)N1 [GT-07440, 5-((2',3'-dichloro-3,6-dihydro-[4,4'-bipyridin]-1(2H)-yl)methyl)-2-(2,4-dioxotetrahydropyrimidin-1(2H)-yl)isoindoline-1,3-dione] | B (80%< substrate protein remaining %≤ 100%) | B (80%< substrate protein remaining %≤ 100%) | A (0% ≤ substrate protein remaining % ≤ 80%) | A (0% ≤ substrate protein remaining % ≤ 80%) | B (80%< substrate protein remaining %≤ 100%) | A (0% ≤ substrate protein remaining % ≤ 80%) | – | – | – | – | – | – |
| Cc1cscc1C1=CCN(Cc2ccc3c(c2)C(=O)N(N2CCC(=O)NC2=O)C3=O)CC1 [GT-05316, 2-(2,4-dioxotetrahydropyrimidin-1(2H)-yl)-5-((4-(4-methylthiophen-3-yl)-3,6-dihydropyridin-1(2H)-yl)methyl)isoindoline-1,3-dione] | – | – | – | – | – | – | B ("B" is defined as 80%< substrate protein remaining %≤ 100%) | B ("B" is defined as 80%< substrate protein remaining %≤ 100%) | B ("B" is defined as 80%< substrate protein remaining %≤ 100%) | A ("A" is defined as 0% ≤ substrate protein remaining % ≤ 80%) | B ("B" is defined as 80%< substrate protein remaining %≤ 100%) | B ("B" is defined as 80%< substrate protein remaining %≤ 100%) |
| Cc1ccsc1C1CCN(Cc2ccc3c(c2)C(=O)N(N2CCC(=O)NC2=O)C3=O)CC1 [GT-07306, 2-(2,4-dioxotetrahydropyrimidin-1(2H)-yl)-5-((4-(3-methylthiophen-2-yl)piperidin-1-yl)methyl)isoindoline-1,3-dione] | B (80%< substrate protein remaining %≤ 100%) | B (80%< substrate protein remaining %≤ 100%) | B (80%< substrate protein remaining %≤ 100%) | A (0% ≤ substrate protein remaining % ≤ 80%) | A (0% ≤ substrate protein remaining % ≤ 80%) | B (80%< substrate protein remaining %≤ 100%) | – | – | – | – | – | – |
